“And” between values parts separate entries of the source, which are not always exact repeats. Equal entries are not always repeated.
Key:
[1] = tested on: control (vector only) NIH 3T3 cells; experiment: Cell viability assay, control NIH 3T3 cells; format: cell-based; conditions: for effect on cell viability: concentration range up to 1 μM, 72 h
Method: See also Supplemental Table S2. […] See also Supplemental Table S1. C. […] Cell viability was assessed at 72 h. […]
from 3 independent assays. […]
the CellTiter-Blue Cell Viability Assay (Promega). Cells were plated in triplicate in a 96- […]
medium with inhibitor at the indicated concentration. After 3 days with the inhibitor, 20 µl […]
(Berthold technologies). Background signal was removed by subtracting the fluorescence from cell-free wells. Results are from 3 independent assays.

LYN = tested on: LYN; parameters: method as in Dieci et al., 2013; conditions: ref Dieci et al., 2013; cited from earlier work
SYK = tested on: SYK; parameters: method as in Dieci et al., 2013; conditions: ref Dieci et al., 2013; cited from earlier work
FGFR = conditions: ref Dieci et al., 2013; cited from earlier work
PDGFα = tested on: PDGFα; parameters: method as in Dieci et al., 2013; conditions: ref Dieci et al., 2013; cited from earlier work
[2] = biological target: vascular endothelial growth factor receptor (VEGFR); conditions: cited from earlier work
[3] = biological target: T1, FGFR1 V561M kinase domain (Homo sapiens, UniProt P11362, V561M); experiment: ADP-Glo kinase assay, FGFR1 V561M gatekeeper variant; format: biochemical; parameters: All kinase domain constructs were cloned into pOPINS (OPPF, Oxford, UK) or pJ821; purification tag (captured on HisTrap, removed with Ulp1 protease) (cleaved yes); made in house; host or cells: E. coli C41 (DE3) co-expressing lambda phosphatase and human CDC37 (phospho form: without the accessory plasmid); conditions: for change of inhibitor sensitivity by V561M: V561M compared to wild type, in vitro kinase assay
Method: The ADP-Glo (Promega) methodology was used for all kinase assays following manufacturers instructions. […] In various experiments the concentrations of these components were varied and this is stated in the text or figure legends. In order to calculate valid inhibition constants (Ki), a number of kinetic parameters needed to be ascertained, in particular, the Km of the kinases for ATP. A thorough Michaelis–Menten kinetic analysis was performed ensuring that all relevant parameters were in the linear range and that the appropriate concentrations of ATP, substrate and kinase were adhered to. All data were processed using Graphpad Prism and parameters presented in Supplemental Tables.
Fig. 1 Kinase activity and inhibition of FGFR1 variants. A. Amino acid alignment of part of the hinge region of the FGFR family and a number of other tyrosine kinases with reported gatekeeper mutations. The gatekeeper residue in each case is numbered and bordered in dark grey. The FGFR 1 to 3 tyrosine that is a cysteine in FGFR4 is highlighted in light grey. B. Histogram showing the inhibition constants (Ki) for four selected compounds upon FGFR1 kinase domain protein, wild type and the indicated mutants. The data were generated from enzyme kinetic analyses using various concentrations of inhibitors and fitting using the Morrison equation within Graphpad Prism. Each data point was repeated in duplicate and the standard error of the mean is presented on each bar. C. Left panel: comparison of the activity of FGFR1 apo (WT-apo) and phosphorylated (WT-2P) kinase domain protein produced using the ADP-Glo Assay. Each data point was produced in triplicate and the standard errors are indicated. Right panel: comparison of the enzyme efficiency (kcat/Km) of FGFR1 apo and phosphorylated protein. Parameters were generated through Michaelis–Menten kinetic experiments and analysed using Graphpad Prism software. […] The data in B–D are representative for 3–4 independent experiments. See also Supplemental Tables S1 and S2.

[4] = tested on: mutations of the gatekeeper residue in all FGFR receptors; parameters: method as in Tan et al., 2014; conditions: ref Tan et al., 2014; cited from earlier work
[5] = tested on: NIH 3T3 cells expressing FGFR3-TACC3 fusion protein; experiment: Cell viability assay, FGFR3-TACC3 NIH 3T3 cells; format: cell-based; conditions: increasing concentrations, 72 h
Source text: (§1) Data were fit with a one-phase association model (for presentation purposes only) using Graphpad prism. Each data point was produced in triplicate and the standard errors are indicated. […] Parameters were generated through Michaelis–Menten kinetic experiments and analysed using Graphpad Prism software. See also Supplemental Table S2. […] The data were generated from enzyme kinetic analyses using various concentrations of inhibitors and fitting using the Morrison equation within Graphpad Prism. Each data point was repeated in duplicate and the standard error of the mean is presented on each bar. See also Supplemental Table S1. C. […] Bottom panels show morphology of NIH3T3 cells expressing the indicated constructs. […] Cell viability was assessed at 72 h. […]
(§2) Cells were seeded in triplicate at 1x10^5 cells per well in 6-well plates, fed every 2-3 days and trypsinised and counted after 7 days, using a coulter counter (Beckman). […]
(§3) The amount of viable cells following culture with kinase inhibitors was measured using the CellTiter-Blue Cell Viability Assay (Promega). […] After 3 days with the inhibitor, 20 µl of cell titer blue reagent was added for 2 hours, and fluorescence measured with excitation at 540 nm and emission at 590 nm, using a Mithras LB940 plate reader (Berthold technologies). Background signal was removed by subtracting the fluorescence from cell-free wells. […]

[6] = tested on: NIH 3T3 cells expressing FGFR3 WT; experiment: Cell viability assay, FGFR3 WT NIH 3T3 cells; format: cell-based; conditions: increasing concentrations of inhibitor
Method: Cells were seeded in triplicate at 1x10^5 cells per well in 6-well plates, fed every 2-3 days and trypsinised and counted after 7 days, using a coulter counter (Beckman). Results are from 3 independent assays.
The amount of viable cells following culture with kinase inhibitors was measured using the CellTiter-Blue Cell Viability Assay (Promega). Cells were plated in triplicate in a 96-well plate at 2x10^3 cells/well and left to attach overnight before the addition of fresh medium with inhibitor at the indicated concentration. After 3 days with the inhibitor, 20 µl of cell titer blue reagent was added for 2 hours, and fluorescence measured with excitation at 540 nm and emission at 590 nm, using a Mithras LB940 plate reader (Berthold technologies). Background signal was removed by subtracting the fluorescence from cell-free wells. Results are from 3 independent assays.

FGFR1 WT kinase domain = FGFR1 WT kinase domain (Homo sapiens, UniProt P11362); experiment: Isothermal titration calorimetry, FGFR1 WT; conditions: ITC, 20 °C
FGFR3 WT kinase domain = FGFR3 WT kinase domain (Homo sapiens, UniProt P22607); experiment: Isothermal titration calorimetry, FGFR3 WT; conditions: ITC, 20 °C
[7] = biological target: T1, FGFR1 V561M kinase domain; experiment: Isothermal titration calorimetry, FGFR1 V561M
[8] = biological target: FGFR1 Y563C kinase domain (Homo sapiens, UniProt P11362, Y563C); experiment: Isothermal titration calorimetry, FGFR1 Y563C
KIT = conditions: ref Dieci et al., 2013; cited from earlier work
[9] = tested on: NIH 3T3 cell line expressing FGFR3-TACC3 V555M; conditions: increasing concentrations, 72 h
Source text: as §1, §2, §3

[10] = tested on: KMS-11 cells harbouring FGFR3 Y373C, V555M; parameters: method as in Chell et al., 2013; conditions: 1 μM; ref Chell et al., 2013; cited from earlier work

## Cc1ccc(C(=O)Nc2ccc(CN3CCN(C)CC3)c(C(F)(F)F)c2)cc1C#Cc1cnc2cccnn12 [AP24534]
[1]; Mus musculus, NIH3T3, read-out: inhibitory effects under control condition
  inhibition at 1 µM: > 60%
LYN
  IC50: […]
SYK
  IC50: […]
FGFR
  IC50: 1 to 2.5 nM
PDGFα
  IC50: 1 to 2.5 nM
[2]
  IC50: 1 to 2.5 nM
[3]
  change of inhibitor sensitivity by V561M: marginal effect on sensitivity

## C=CC(=O)Nc1ccc(CN2C(=O)N(c3cc(OC)cc(OC)c3)Cc3cnc(Nc4ccc(N5CCN(C)CC5)cc4)nc32)cc1 [FIIN2]
[4]
  efficacy towards gatekeeper mutations: proved effective

## C=CC(=O)Nc1ccc(CN(C(=O)Nc2c(Cl)c(OC)cc(OC)c2Cl)c2cc(Nc3ccc(N4CCN(C)CC4)cc3)ncn2)cc1 [FIIN3]
[4]
  efficacy towards gatekeeper mutations: proved effective

## CCN(CC)CCCCNc1ncc2cc(-c3cc(OC)cc(OC)c3)c(NC(=O)NC(C)(C)C)nc2n1 [PD173074]
[1]
  effect on cell viability: very little or no effect
[5]
  effect on cell viability: selectively inhibited
[6]
  effect on cell viability: unaffected
FGFR1 WT kinase domain
  -TΔS: -3.7 ± 0.1 kcal/mol
  n (number of binding sites): 0.91 ± 0.0007
  ΔG: -11.4 ± 0.09 kcal/mol
  ΔH: -7.7 ± 0.01 kcal/mol
FGFR3 WT kinase domain
  -TΔS: -0.1 ± 0.32 kcal/mol
  n (number of binding sites): 0.89 ± 0.002
  ΔG: -11.5 ± 0.25 kcal/mol
  ΔH: -11.4 ± 0.07 kcal/mol
[7]; ITC, 20 °C
  -TΔS: -5.3 ± 0.14 kcal/mol
  n (number of binding sites): 0.80 ± 0.006
  ΔG: -8.7 ± 0.10 kcal/mol
  ΔH: -3.4 ± 0.04 kcal/mol
[7]; V561M versus WT, from ITC, standard deviation in parentheses
  ΔΔGexp (binding free energy difference, mutant − WT): 2.73 ± 0.18 kcal/mol and 2.73 (0.18) kcal/mol
[8]; ITC, 20 °C
  -TΔS: -4.1 ± 0.14 kcal/mol
  n (number of binding sites): 0.66 ± 0.002
  ΔG: -10.5 ± 0.11 kcal/mol
  ΔH: -6.4 ± 0.03 kcal/mol
[8]; Y563C versus WT, from ITC, uncertainty in parentheses
  ΔΔGexp (binding free energy difference, mutant − WT): 0.97 kcal/mol
[3]
  change of inhibitor sensitivity by V561M: clear reduction of sensitivity
[3]; V561M versus WT FGFR1
  reduction of potency on the gatekeeper variant: up to 225 fold

## CN1CCN(c2ccc3nc(-c4c(N)c5c(F)cccc5[nH]c4=O)[nH]c3c2)CC1 [TKI258]
[1]
  effect on cell viability: very little or no effect
KIT
  IC50: […]

## AZD4547
[1]
  effect on cell viability: very little or no effect
[5]
  effect on cell viability: most effective
[9]
  effect on cell viability: completely ineffective
[10]
  effect on cells: only marginally affected
[3]
  change of inhibitor sensitivity by V561M: clear reduction of sensitivity

From publication PMC4471147, “The Effect of Mutations on Drug Sensitivity and Kinase Activity of Fibroblast Growth Factor Receptors: A Combined Experimental and Theoretical Study” (eBioMedicine, 2015)
